From patent US20080275029A1, “Compounds for Treating Protein-Kinase Mediated Disorders” (ASTEX THERAPEUTICS LIMITED, priority 2004, published 2008)
Structures can show the parent of a compound that is named as a salt. Where two headings read alike, the source gives them in different places.

Target: T1, protein kinase B (PKB), fusion protein PKB-PIF (Homo sapiens, UniProt P31751)
T1 construct: made in house
Test: Measurement of PKB kinase inhibitory activity (IC50)
Type: biochemical
Experimental: The inhibition of protein kinase B (PKB) activity by compounds can be determined essentially as described by Andjelkovic et al. (Mol. Cell. Biol. 19, 5061-5072 (1999)) but using a fusion protein described as PKB-PIF and described in full by Yang et al (Nature Structural Biology 9, 940-944 (2002)). […] A final concentration of 0.6 nM enzyme is used in a buffer that includes 20 mM MOPS pH 7.2, 30 μM ATP/γ^33P-ATP and 25 μM substrate. Compounds are added in DMSO solution to a final DMSO concentration of 2.5%. The reaction is allowed to proceed for 20 minutes before addition of excess orthophosphoric acid to quench activity. The reaction mixture is transferred to a phosphocellulose filter plate where the peptide binds and the unused ATP is washed away. After washing, scintillant is added and the incorporated activity measured by scintillation counting.
The % inhibition of the PKB activity is calculated and plotted in order to determine the concentration of test compound required to inhibit 50% of the PKB activity (IC50).

[1] = PKB-PIF activated with PDK1, 30 μM ATP, AKTide-2T substrate, 20 minutes, read-out: IC50 (concentration required to inhibit 50% of the PKB activity)

T1 sequence (P31751 with tags, fused parts or gaps limits assumed): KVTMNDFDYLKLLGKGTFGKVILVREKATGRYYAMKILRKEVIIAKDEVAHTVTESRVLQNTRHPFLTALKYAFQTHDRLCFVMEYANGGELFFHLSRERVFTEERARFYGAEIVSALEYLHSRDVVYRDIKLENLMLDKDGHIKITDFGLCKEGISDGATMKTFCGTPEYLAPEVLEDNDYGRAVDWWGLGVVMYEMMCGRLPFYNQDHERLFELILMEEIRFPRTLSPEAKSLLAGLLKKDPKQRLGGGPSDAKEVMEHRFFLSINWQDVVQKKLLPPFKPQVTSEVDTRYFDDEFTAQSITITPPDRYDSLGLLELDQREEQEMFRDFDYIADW

SMILES | IC50 [1] [µM] | IC50 [µM]
NCCC(C(=O)Nc1ccc2c(=O)[nH]cnc2c1)c1ccc(Cl)c(Cl)c1 (stereo not shown) [Example 1, 4-Amino-2-(3,4-dichloro-phenyl)-N-(4-oxo-3,4-dihydro-quinazolin-7-yl)-butyramide] | < 10 | 
CNCCC(C(=O)Nc1ccc2c(=O)[nH]cnc2c1)c1ccc(Cl)cc1 (stereo not shown) [Example 2, 2-(4-Chloro-phenyl)-4-methylamino-N-(4-oxo-3,4-dihydro-quinazolin-7-yl)-butyramide] | < 10 | 
O=C(Nc1ccc2c(=O)[nH]cnc2c1)C1(c2ccccc2)CCNCC1 [Example 4, 4-Phenyl-piperidine-4-carboxylic acid (4-oxo-3,4-dihydro-quinazolin-7-yl)-amide] | < 10 | 
O=C(NCc1ccc(F)cc1)Nc1ccc2c(=O)[nH]cnc2c1 [Example 6, 1-(4-Fluoro-benzyl)-3-(4-oxo-3,4-dihydro-quinazolin-7-yl)-urea] | < 10 | 
O=c1[nH]cnc2cc(OCC3(c4ccccc4)CCNCC3)ccc12 [Example 7, 7-(4-Phenyl-piperidin-4-ylmethoxy)-3H-quinazolin-4-one] | < 10 | 
O=C(NCc1ccccc1)Nc1ccc2c(=O)[nH]cnc2c1 [Example 8, 1-Benzyl-3-(4-oxo-3,4-dihydro-quinazolin-7-yl)-urea] | < 10 | 
O=c1[nH]cnc2cc(N3CCNCC3)ccc12 [Example 18, 7-piperazin-1-yl-3H-quinazolin-4-one] |  | < 10
N[C@H]1CC[C@H](Nc2ccc3c(=O)[nH]c(=O)[nH]c3c2)CC1 [Example 21, 7-(4-Amino-cyclohexylamino)-1H-quinazoline-2,4-dione] | < 10 | 
CN1CCCN(c2ccc3c(=O)[nH]cnc3c2)CC1 [Example 22, 7-(4-Methyl-[1,4]diazepan-1-yl)-3H-quinazolin-4-one] | < 10 | 
CN1CCN(C2CCN(c3ccc4c(=O)[nH]cnc4c3)CC2)CC1 [Example 23, 7-[4-(4-Methyl-piperazin-1-yl)-piperidin-1-yl]-3H-quinazolin-4-one] | < 50 | 
O=c1[nH]cnc2cc(N3CCNC(c4ccccc4)C3)ccc12 (stereo not shown) [Example 25] | < 50 | 
NCC1(c2ccc(Cl)cc2)CCN(c2ccc3c(=O)[nH]cnc3c2)CC1 [Example 27, 7-[4-Aminomethyl-4-(4-chloro-phenyl)-piperidin-1-yl]-3H-quinazolin-4-one] | < 10 | 
NCC[C@H](C(=O)Nc1ccc2c(=O)[nH]cnc2c1)c1ccc(Cl)c(Cl)c1 [Example 28] | < 10 | 
NCC[C@@H](C(=O)Nc1ccc2c(=O)[nH]cnc2c1)c1ccc(Cl)c(Cl)c1 [Example 29, (R)-4-Amino-2-(3,4-dichloro-phenyl)-N-(4-oxo-3,4-dihydro-quinazolin-7-yl)butyramide] | < 10 | 
O=C(Nc1ccc2c(=O)[nH]cnc2c1)C1(c2ccc(Cl)cc2)CCNCC1 [Example 30, 4-(4-Chloro-phenyl)-piperidine-4-carboxylic acid (4-oxo-3,4-dihydro-quinazolin-7-yl)-amide] | < 10 | 
O=c1[nH]cnc2cc(NCC3(c4ccc(Cl)cc4)CCNCC3)ccc12 [Example 32, 7-{[4-(4-Chloro-phenyl)-piperidin-4-ylmethyl]-amino}-3H-quinazolin-4-one] | < 10 | 
O=c1[nH]cnc2cc(OCC3(c4ccc(Cl)cc4)CCNCC3)ccc12 [Example 33, 7-[4-(4-Chloro-phenyl)-piperidin-4-ylmethoxy]-3H-quinazolin-4-one] | < 10 | 
O=c1[nH]cnc2cc(N3CCC(CO)(c4ccc(Cl)cc4)CC3)ccc12 [Example 34, 7-[4-(4-Chloro-phenyl)-4-hydroxymethyl-piperidin-1-yl]-3H-quinazolin-4-one] | < 10 | 
Cc1nc2cc(N3CCC(CN)(c4ccc(Cl)cc4)CC3)ccc2c(=O)[nH]1 [Example 35, 7-[4-Aminomethyl-4-(4-chloro-phenyl)-piperidin-1-yl]-2-methyl-3H-quinazolin-4-one] | < 10 | 
NC(c1ccc(Cl)cc1)C1CCN(c2ccc3c(=O)[nH]cnc3c2)CC1 (stereo not shown) [Example 36, 7-{4-[Amino-(4-chloro-phenyl)-methyl]-piperidin-1-yl}-3H-quinazolin-4-one] | < 10 | 
Cn1c(=O)[nH]c(=O)c2ccc(OCC3(c4ccc(Cl)cc4)CCNCC3)cc21 [Example 37, 7-[4-(4-Chloro-phenyl)-piperidin-4-ylmethoxy]-1-methyl-1H-quinazoline-2,4-dione] | < 10 | 
NC1(Cc2ccc(Cl)cc2)CCN(c2ccc3c(=O)[nH]cnc3c2)CC1 [Example 38, 7-[4-Amino-4-(4-chloro-benzyl)-piperidin-1-yl]-3H-quinazolin-4-one] | < 10 | 
O=c1[nH]cnc2cc(/C=C/C3(c4ccc(Cl)cc4)CCNCC3)ccc12 [Example 39, 7-{2-[4-(4-Chloro-phenyl)-piperidin-4-yl]-vinyl}-3H-quinazolin-4-one dihydrochloride] | < 10 | 
NC1(c2ccc(Cl)cc2)CCN(c2ccc3c(=O)[nH]cnc3c2)CC1 [Example 40, 7-[4-Amino-4-(4-chloro-phenyl)-piperidin-1-yl]-3H-quinazolin-4-one] | < 10 | 
Cn1c(=O)[nH]c(=O)c2ccc(N3CCC(CN)(Cc4ccc(Cl)cc4)CC3)cc21 [Example 42, 7-[4-Aminomethyl-4-(4-chloro-benzyl)-piperidin-1-yl]-1-methyl-1H-quinazoline-2,4-dione] | < 10 | 

Next, values leading:

IC50 [1] [µM] | IC50 [µM] | SMILES
< 10 |  | NCCC(NC(=O)c1ccc2c(=O)[nH]cnc2c1)c1ccc(Cl)cc1 (stereo not shown) [Example 3, 4-Oxo-3,4-dihydro-quinazoline-7-carboxylic acid[3-amino-1-(4-chloro-phenyl-propyl]-amide hydrochloride]
< 10 |  | O=C(NCc1ccc(Cl)cc1)Nc1ccc2c(=O)[nH]cnc2c1 [Example 5, 1-(4-Chloro-benzyl)-3-(4-oxo-3,4-dihydro-quinazolin-7-yl)-urea]
 | < 10 | NCCCOc1ccc2c(=O)[nH]cnc2c1 [Example 9, 7-(3-Amino-propoxy)-3H-quinazolin-4-one]
< 10 |  | NCCCc1ccc2c(=O)[nH]cnc2c1 [Example 14, 7-(3-Amino-propyl)-3H-quinazolin-4-one]
< 10 |  | N[C@H]1CC[C@H](Nc2ccc3c(=O)[nH]cnc3c2)CC1 [Example 15, 7-(trans-4-Amino-cyclohexylamino)-3H-quinazolin-4-one]
 | < 10 | O=c1[nH]cnc2cc(NC3CCNC3)ccc12 (stereo not shown) [Example 16, 7-(Pyrrolidin-3-ylamino)-3H-quinazolin-4-one]
< 10 |  | NC1CCN(c2ccc3c(=O)[nH]cnc3c2)CC1 [Example 17, 7-(4-Amino-piperidin-1-yl)-3H-quinazolin-4-one]
< 10 |  | O=c1[nH]cnc2cc(N3CCCNCC3)ccc12 [Example 19, 7-[1,4]Diazepan-1-yl-3H-quinazolin-4-one]
< 10 |  | O=c1[nH]cnc2cc(NC3CCCNC3)ccc12 (stereo not shown) [Example 20, 7-(Piperidin-3-ylamino)-3H-quinazolin-4-one]
< 50 |  | CN1CCN(c2ccc3c(=O)[nH]cnc3c2)CC1 [Example 26, 7-(4-Methyl-piperazin-1-yl)-3H-quinazolin-4-one]
< 10 |  | N[C@H]1CC[C@H](Oc2ccc3c(=O)[nH]cnc3c2)CC1 [Example 31, 7-(4-Amino-cyclohexyloxy)-3H-quinazolin-4-one]
< 10 |  | NCC1(Cc2ccc(Cl)cc2)CCN(c2ccc3c(=O)[nH]cnc3c2)CC1 [Example 41, 7-[4-Aminomethyl-4-(4-chloro-benzyl)-piperidin-1-yl]-3H-quinazolin-4-one]
